These results are taken from publication PMC7583056, “Synthesis, Characterisation and In Vitro Anticancer Activity of Catalytically Active Indole-Based Half-Sandwich Complexes” (Molecules, 2020).

One data set relates to PNT2 cells. As to the kind of experiment: Chemosensitivity assay (MTT) in PNT2 cells. In kind it is cell-based. The following applies: for IC50: 24 h exposure + 48 h recovery, MTT, mean ± SD. The text has this: (§1) The antiproliferative activity of the ind-py ligand and of complexes 1–4 against ovarian cancer A2780 (cisplatin sensitive) and A2780cisR (cisplatin resistant) cell lines was studied. The IC50 values obtained for all the complexes are shown in Table 2, together with values for cisplatin, which was used as a positive control (untreated cells for 100% viability as negative control). […] One of the major limitations of existing anticancer drugs is their poor selectivity towards cancer cells. Comparing the response of the cancer cell lines to the normal PNT2 cells provides a preliminary indication towards the selectivity of the compounds.
(§2) In vitro chemosensitivity tests were performed against A2780, A2780cisR and PNT2 cells. Cells were routinely maintained as monolayer cultures in RPMI medium supplemented with 10% foetal calf serum, penicillin (100 I.U./mL) and streptomycin (100 μg/mL), sodium pyruvate (1 mM) and L-glutamine (2 mM). For chemosensitivity studies, cells were incubated in 96-well plates at a concentration of 7.5 × 10^3 cells per well and the plates were incubated for 24 h at 37 °C and a 5% CO2 humidified atmosphere prior to drug exposure.
(§3) Complexes were dissolved in DMSO to provide stock solutions, which were further diluted with media to provide a range of final concentrations. Drug-media solutions were added to cells (the final concentration of DMSO was less than 1% (v/v) in all cases) and incubated for 24 h at 37 °C and 5% CO2 humidified atmosphere. The drug-media was removed from the wells and the cells were washed with PBS (100 μL, twice), and 100 μL of complete fresh media were added to each well. The plates were further incubated for 48 h at 37 °C in a 5% CO2 humidified atmosphere to allow for a period of recovery. 3-(4,5-dimethylthiazol-2-yl)-2,5-diphenyltetrazolium bromide (MTT) (20 μL, 2.5 mg/mL) was added to each well and incubated for 2 h at 37 °C and 5% CO2 humidified atmosphere. All solutions were then removed and 100 μL of DMSO was added to each well in order to dissolve the purple formazan crystals. A Thermo Scientific Multiskan EX microplate photometer was used to measure the absorbance in each well at 570 nm. Cell survival was determined as the absorbance of treated cells divided by the absorbance of controls and expressed as a percentage. The IC50 values were determined from plots of % survival against drug concentration. Each experiment was repeated in triplicates of triplicates and a mean value was obtained and stated as IC50 (μM) ± SD. Cisplatin was also used as a positive control.

The test system of another data set is A2780cisR cells. As to the kind of experiment: Chemosensitivity assay (MTT) in A2780cisR cells. In kind it is cell-based. The following applies: for IC50: 24 h exposure + 48 h recovery, MTT, mean ± SD.
Description: as §1, §2, §3

For another data set, the system named is A2780 cells. As to the kind of experiment: Chemosensitivity assay (MTT) in A2780 cells. In kind it is cell-based. The following applies: for IC50: 24 h exposure + 48 h recovery, MTT, mean ± SD, read-out: IC50 A2780.
Description: as §1, §2, §3

The nature of data set [1]: Stability and aquation in MeOD/D2O by 1H-NMR. In kind it is physicochemical. The following applies: MeOD/D2O 1:1 v/v, 1.1 mM, 298 K, over 24 h. As to the method:
Owing to the limited aqueous solubility of the complexes, all the reactivity experiments were performed using a mixture MeOD/D2O (1:1 v/v) as a solvent. The stability of complexes 1–4 in MeOD/D2O was studied via ^1H-NMR spectroscopy over a period of 24 h. […] The stability of complexes 1–4 in dimethylsulfoxide (DMSO;1.1 mM) was also studied by ^1H-NMR spectroscopy over a period of 24 h (Figure S1). […] The ligand ind-py is also stable in MeOD/D2O over 24 h (Figure S1E).
Aquation of the monodentate ligand (X) is a common behaviour for half-sandwich complexes of the type [(arene/Cp)M(NUN)X] and it is usually considered an activation step, which allows further reactions with the corresponding targets. To study if aquation of complexes 1–4 occurs in MeOD/D2O (1:1 v/v), experiments in the presence of either one molar equivalent of silver nitrate (to force the release of the monodentate Cl^- ligand), or NaCl (to block hydrolysis), were performed.
Complexes 1–4 were dissolved in MeOD (2.2 mM) and diluted to a final concentration of 1.1 mM with either MeOD or D2O. ^1H-NMR spectra were recorded at t ≤ 10 min, 12 h and 24 h. The samples were then reacted with either 1 mol. equiv. of silver nitrate to obtain the fully hydrolysed species or NaCl to block hydrolysis.

Like-named read-outs stand apart in the source and are kept apart here.

On to `N.N.[Cl][Pt][Cl]` [Cisplatin, reference compound], for which the IC50 came out at 43 ± 3 µM in the data set on PNT2 cells, 22.4 ± 0.5 µM in the data set with A2780cisR cells and 10.3 ± 0.5 µM with A2780 cells.

`c1ccc(-c2cc3ccccc3[nH]2)nc1` [Ind-py, 2-(2-pyridinyl)-1H-indole, reference compound]: the “Stability in MeOD/D2O” value in data set [1] is reported as “stable”. In addition, the “Cytotoxicity against PNT2 (in words)” value in the data set with PNT2 cells (Figure S14) was “non-cytotoxic”. Besides, the 50% inhibitory concentration (IC50) in the data set on PNT2 cells (Homo sapiens, PNT2) is above 100 µM; in the data set with A2780cisR cells (Homo sapiens, A2780cisR), above 100 µM; in the data set with A2780 cells (Homo sapiens, A2780), above 100 µM. Also, in the data set on A2780cisR cells (Figure S14), the “Cytotoxicity against A2780cisR (in words)” value is listed as “non-cytotoxic”. In the data set with A2780 cells (Figure S14), the “Cytotoxicity against A2780 (in words)” value is “non-cytotoxic”.

As a reminder, the IC50 is the concentration at which inhibition is half-maximal.
